Target: T1, CPS1 (Homo sapiens, UniProt P31327)
T1 construct: The full length, human CPS1 gene was cloned into pFastBac HTA; His6 (from the pFastBac HTA vector); made in house; host or cells: SF21 insect cells (baculovirus, Bac-to-bac)
T1 sequence (P31327 39-1500): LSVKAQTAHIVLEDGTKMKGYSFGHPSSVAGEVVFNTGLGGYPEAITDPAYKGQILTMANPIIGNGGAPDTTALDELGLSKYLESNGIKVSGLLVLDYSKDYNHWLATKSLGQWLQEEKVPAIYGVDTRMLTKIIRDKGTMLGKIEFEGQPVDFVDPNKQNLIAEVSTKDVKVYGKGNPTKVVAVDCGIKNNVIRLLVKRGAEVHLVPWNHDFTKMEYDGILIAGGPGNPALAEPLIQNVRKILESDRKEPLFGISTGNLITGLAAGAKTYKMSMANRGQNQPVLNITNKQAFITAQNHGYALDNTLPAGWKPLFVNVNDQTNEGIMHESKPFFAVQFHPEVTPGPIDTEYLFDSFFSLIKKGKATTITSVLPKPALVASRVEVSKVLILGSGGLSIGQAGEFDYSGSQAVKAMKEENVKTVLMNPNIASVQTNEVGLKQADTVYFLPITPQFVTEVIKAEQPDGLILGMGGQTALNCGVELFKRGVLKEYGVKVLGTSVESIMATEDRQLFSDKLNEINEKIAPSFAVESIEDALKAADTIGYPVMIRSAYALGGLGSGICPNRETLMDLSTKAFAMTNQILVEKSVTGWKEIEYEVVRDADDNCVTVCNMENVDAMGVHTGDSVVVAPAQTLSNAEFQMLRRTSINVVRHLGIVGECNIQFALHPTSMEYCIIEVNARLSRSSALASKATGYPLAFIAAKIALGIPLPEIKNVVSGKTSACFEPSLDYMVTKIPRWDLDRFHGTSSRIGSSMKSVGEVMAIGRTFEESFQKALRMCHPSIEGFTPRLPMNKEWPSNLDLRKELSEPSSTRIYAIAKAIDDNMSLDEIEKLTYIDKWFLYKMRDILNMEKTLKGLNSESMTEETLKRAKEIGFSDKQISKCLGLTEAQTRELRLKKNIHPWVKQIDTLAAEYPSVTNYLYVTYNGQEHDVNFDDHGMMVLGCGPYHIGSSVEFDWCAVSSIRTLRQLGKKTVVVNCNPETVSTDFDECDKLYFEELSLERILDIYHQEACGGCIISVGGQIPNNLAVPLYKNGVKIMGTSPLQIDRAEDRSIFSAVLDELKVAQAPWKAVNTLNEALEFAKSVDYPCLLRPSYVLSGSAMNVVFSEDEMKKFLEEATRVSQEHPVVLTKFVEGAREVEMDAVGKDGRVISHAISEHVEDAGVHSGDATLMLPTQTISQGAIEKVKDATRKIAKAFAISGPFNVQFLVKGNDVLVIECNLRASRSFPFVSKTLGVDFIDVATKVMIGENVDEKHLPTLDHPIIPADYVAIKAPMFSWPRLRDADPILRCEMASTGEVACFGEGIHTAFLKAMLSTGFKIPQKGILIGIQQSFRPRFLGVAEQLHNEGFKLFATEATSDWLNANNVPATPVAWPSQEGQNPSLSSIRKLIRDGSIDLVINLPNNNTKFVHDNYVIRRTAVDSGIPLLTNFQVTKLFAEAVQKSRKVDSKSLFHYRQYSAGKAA
Assay: ADP-Glo endpoint assay measuring the ATPase activity of CPS1
Format: biochemical
Details: geometric mean of a minimum of two values; 50 nM CPS1, 10 μM ATP, 0.2 mM NAG, 60 min at room temperature; read-out: ADPGlo IC50
Protocol: CPS1 was expressed and purified from SF21 insect cells. The full length, human CPS1 gene was cloned into pFastBac HTA and baculovirus was generated using the Bac-to-bac expression system from Invitrogen. P3 virus was used to infect SF21 insect cells at a density of 1.5E6 cells/mL at an MOI of 2. Cells were harvested by centrifugation after 60 hrs and the cell pellet resuspended in lysis buffer (50 mM glycyl glycine pH 7.4, 20 mM KCl, 1 mM TCEP, 10% glycerol and 20 mM imidazole with Roche protease inhibitor tablet) before being lysed with 40 strokes of a Dounce homogenizer on ice. The insoluble fraction of the lysate was then cleared by centrifugation at 30,000 rpm for 30 min. 40 mL of supernatant was mixed with 2 mL of Ni NTA beads for 45 min at 4° C. in a 50 mL conical tube.
The beads were washed with 40 mL of wash buffer (50 mM glycyl glycine pH 7.4, 500 mM NaCl, 1 mM TCEP, 10% glycerol and 50 mM imidazole) by centrifugation and resuspension of the beads three times. Bound CPS1 protein was eluted in 6 mL of elution buffer (50 mM glycyl glycine pH 7.4, 500 mM NaCl, 1 mM TCEP, 10% glycerol and 250 mM imidazole) three times. Elution fractions were combined and concentrated using an Amicon Ultra centrifugation filter with a 10,000 molecular weight cut off. Imidazole was removed by repeated concentration and resuspension in storage buffer in the filter device (50 mM glycyl glycine pH 7.4, 500 mM NaCl, 1 mM TCEP and 20% glycerol). CPS1 was concentrated to a final concentration of ˜3 mg/mL before being aliquoted, flash frozen in liquid nitrogen and stored at −80° C.
CPS1 activity was measured and compounds profiled in an endpoint assay measuring the ATPase activity of CPS1 using the ADP-Glo kit from Promega. 50 nM CPS1 was incubated alone or with varying amounts of tested compound from DMSO stocks in assay buffer (50 mM HEPES pH 7.0, 12.5 mM KHCO3, 1.5 mM (NH4)2SO3, 5 mM MgCl2, 50 mM KCl, 1 mM TCEP, 0.01% TritonX 100, 0.0025% BSA and 0.2 mM NAG) for 20 min in a 3 μL volume in a 384-well plate (Corning Cat#3820). The final concentration of DMSO was 0.04%. The reaction was initiated by the addition of 10 μM ATP, bringing the final volume to 6 μL. After 60 min at room temperature, the reaction was terminated with 3 μL ADP-Glo reagent and incubated at room temperature for 30 min. 3 μL of kinase detection reagent was then added and luminescent signal measured on an Envision plate reader after 30 min.

| SMILES | IC50 [µM] |
| --- | --- |
| COc1ccc(C(=O)N2[C@H](C)CN(C(=O)c3cnc4cc[nH]c4c3)C[C@H]2C)c(F)c1 [Compound 37, ((2R,6R)-2,6-Dimethyl-4-(1H-pyrrolo[3,2-b]pyridine-6-carbonyl)piperazin-1-yl)(2-fluoro-4-methoxyphenyl)methanone] | 2.51 |
| COc1ccc(C(=O)N2C[C@@H](C)N(C(=O)c3c(C)cc(OC)cc3F)[C@H](C)C2)c(F)c1 [Compound 28, ((3R,5R)-4-(2-Fluoro-4-methoxy-6-methylbenzoyl)-3,5-dimethylpiperazin-1-yl)(2-fluoro-4-methoxyphenyl)methanone] | 0.909 |
| COc1ccc(C(=O)N2[C@H](C)CN(C(=O)c3cc(Cl)c4cc[nH]c4c3)C[C@H]2C)c(F)c1 [Compound 17, (4-Chloro-1H-indol-6-yl)((3R,5R)-4-(2-fluoro-4-methoxybenzoyl)-3,5-dimethylpiperazin-1-yl)methanone] | 0.526 |
| COc1ccc(C(=O)N2[C@H](C)CN(C(=O)c3ccc(OC)c(F)c3F)C[C@H]2C)c(F)c1 [Compound 2, ((2R,6R)-4-(2,3-Difluoro-4-methoxybenzoyl)-2,6-dimethylpiperazin-1-yl)(2-fluoro-4-methoxyphenyl)methanone] | 0.427 |
| COc1ccc(C(=O)N2[C@H](C)CN(C(=O)c3cc(F)c(OC)cc3F)C[C@H]2C)c(F)c1 [Compound 10, ((2R,6R)-4-(2,5-Difluoro-4-methoxybenzoyl)-2,6-dimethylpiperazin-1-yl)(2-fluoro-4-methoxyphenyl)methanone] | 0.71 |
| COc1ccc(C(=O)N2C[C@@H](C)N(C(=O)c3ccc(OC(F)(F)F)cc3F)[C@H](C)C2)c(F)c1 [Compound 31, ((3R,5R)-4-(2-fluoro-4-(trifluoromethoxy)benzoyl)-3,5-dimethylpiperazin-1-yl)(2-fluoro-4-methoxyphenyl)methanone] | 1.19 |
| COc1ccc(C(=O)N2C[C@@H](C)N(C(=O)c3ccc(-n4cnnn4)cc3)[C@H](C)C2)c(F)c1 [Compound 41, ((3R,5R)-4-(4-(1H-Tetrazol-1-yl)benzoyl)-3,5-dimethylpiperazin-1-yl)(2-fluoro-4-methoxyphenyl)methanone] | 10.4 |
| CCOc1ccc(C(=O)N2[C@H](C)CN(C(=O)c3ccc(OC)cc3F)C[C@H]2C)c(F)c1 [Compound 27, ((3R,5R)-4-(4-Ethoxy-2-fluorobenzoyl)-3,5-dimethylpiperazin-1-yl)(2-fluoro-4-methoxyphenyl)methanone] | 0.414 |
| COc1ccc(C(=O)N2C[C@@H](C)N(C(=O)c3cc(F)c(OC)cc3F)[C@H](C)C2)c(F)c1 [Compound 23, ((3R,5R)-4-(2,5-Difluoro-4-methoxybenzoyl)-3,5-dimethylpiperazin-1-yl)(2-fluoro-4-methoxyphenyl)methanone] | 1.19 |
| COc1ccc(C(=O)N2[C@H](C)CN(C(=O)c3ccc4c(c3)CCO4)C[C@H]2C)c(F)c1 [Compound 21, ((2R,6R)-4-(2,3-Dihydrobenzofuran-5-carbonyl)-2,6-dimethylpiperazin-1-yl)(2-fluoro-4-methoxyphenyl)methanone] | 7.45 |

More lines, now with the values ahead:

| IC50 [µM] | SMILES |
| --- | --- |
| 31 | COc1ccc(C(=O)N2[C@H](C)CN(C(=O)c3ccc4ccn(C)c4c3)C[C@H]2C)c(F)c1 [Compound 83, ((2R,6R)-2,6-dimethyl-4-(1-methyl-1H-indole-6-carbonyl)piperazin-1-yl)(2-fluoro-4-methoxyphenyl)methanone] |
| > 66.7 | COc1ccc(C(=O)N2[C@H](C)CN(C(=O)c3cccc(OC)c3F)C[C@H]2C)c(F)c1 [Compound 92, ((2R,6R)-4-(2-fluoro-3-methoxybenzoyl)-2,6-dimethylpiperazin-1-yl)(2-fluoro-4-methoxyphenyl)methanone] |
| 1.59 | COc1ccc(OC)c2[nH]c(C(=O)N3C[C@@H](C)N(C(=O)c4ccc5cc[nH]c5c4)[C@H](C)C3)cc12 [Compound 53, ((3R,5R)-4-(1H-indole-6-carbonyl)-3,5-dimethylpiperazin-1-yl)(4,7-dimethoxy-1H-indol-2-yl)methanone] |
| 6.34 | COc1ccc(C(=O)N2CC(C)N(C(=O)c3ccc(OC)cc3F)C(C)C2)c(F)c1 (centres unmarked) [Compound 68, (2,6-dimethylpiperazine-1,4-diyl)bis((2-fluoro-4-methoxyphenyl)methanone)] |
| 10.5 | COc1ccc(C(=O)N2[C@H](C)CN(c3ncnc4cc(OC)ccc34)C[C@H]2C)c(F)c1 [Compound 62, (2-fluoro-4-methoxyphenyl)((2R,6R)-4-(7-methoxyquinazolin-4-yl)-2,6-dimethylpiperazin-1-yl)methanone] |
| 6.56 | COc1ccc(C(=O)N2C[C@H](C)N(C(=O)c3ccc(OC)cc3F)[C@@H](C)C2)c(F)c1 [Compound 49, ((2S,6S)-2,6-Dimethylpiperazine-1,4-diyl)bis((2-fluoro-4-methoxyphenyl)methanone)] |
| 4.91 | COc1ccc(C(=O)N2C[C@@H](C)N(C(=O)c3ccc(Cl)cc3F)[C@H](C)C2)c(F)c1 [Compound 66, ((3R,5R)-4-(4-chloro-2-fluorobenzoyl)-3,5-dimethylpiperazin-1-yl)(2-fluoro-4-methoxyphenyl)methanone] |
| 16.7 | COc1ccc(C(=O)N2C[C@@H](C)N(C(=O)c3ccc(S(C)(=O)=O)cc3F)[C@H](C)C2)c(F)c1 [Compound 76, ((3R,5R)-4-(2-fluoro-4-(methylsulfonyl)benzoyl)-3,5-dimethylpiperazin-1-yl)(2-fluoro-4-methoxyphenyl)methanone] |
| 18.9 | COc1ccc(C(=O)N2[C@H](C)CN(C(=O)c3c[nH]c4ccccc34)C[C@H]2C)c(F)c1 [Compound 77, ((2R,6R)-4-(1H-indole-3-carbonyl)-2,6-dimethylpiperazin-1-yl)(2-fluoro-4-methoxyphenyl)methanone] |
| 38.2 | COc1ccc(C(=O)N2[C@H](C)CN(C(=O)Cc3n[nH]c4ccccc34)C[C@H]2C)c(F)c1 [Compound 88, 1-((3R,5R)-4-(2-fluoro-4-methoxybenzoyl)-3,5-dimethylpiperazin-1-yl)-2-(1H-indazol-3-yl)ethanone] |

Source: patent publication US20230026271A1, “Piperazine Compounds for Inhibiting CPS1” (Eisai R&D Management Co., Ltd., priority 2019, published 2023)
